Values quoted from earlier work, collected in paper PMC2505184 (Bioconjugate chemistry, 2008).

in vitro serum stability: high in vitro serum stability
Compound: O=C([O-])CN1CCCN(CC(=O)[O-])CCN(CC(=O)[O-])CCCN(CC(=O)[O-])CC1.[64Cu+2] [^64Cu-TETA]
